What was measured:
[1] = tested on: MRSA 6; experiment: Infected incised wound of rats, MRSA 6; format: in vivo, Rattus Norvegicus; settings: wound infected with MRSA 6; 6 rats
Protocol: (§1) Effectivity Study on Infected Incised Wound of Rattus Norvegicus Experimental Research on Animal Testing
(§2) Method: Solution Preparation Protocol for Infected Incised Wound
(§3) Preparing the solution with these following steps:
(§4) 1. Bacteria from the infected patient clinical isolate is planted on the media by streaking at for quadrant
(§5) 2. The isolated bacteria in separated colonies are dissolved in the tube that contain pz liquid
(§6) 3. In order to analyze the cloudness level of the solution on the tube, nephelometer is used to figure the cloudness level to 0.50 McFarland.
(§7) 4. 0.5 McFarland is equal to 1.5×10^8 CFU bacteria.
(§8) Infected Incised Wound Preparation Protocol on Animals
(§9) 1. Preparation of animals:
(§10) 1. Inject the animals with anesthesia drug containing ketamine hydrochloride, 0.1-0.2 ml
(§11) 2. Place them back into the cage while waiting them to be fully unconscious as the effect of the drug.
(§12) 3. Shave the back hair of the animals with razor blade.
(§13) 4. Give antiseptics, i.e. povidone iodine and alcohol. Wait for three minutes.
(§14) 5. Make a 2-cm long incision on the animal's back. Should any bleeding occurred, wipe with cotton.
(§15) 6. Swipe the incised spot with the bacteria solution using a cotton bud.
(§16) 7. Cover the spot with gauze bandage and stick it with plaster.
8. […]
(§17) The tissue's processing is started after the fixation completed. […] Remove from the oven and leave it in room temperature, then the tissue is ready to dye. […]

[2] = tested on: MRSA 10; experiment: Infected incised wound of rats, MRSA 10; format: in vivo, Rattus Norvegicus; settings: wound infected with MRSA 10; 6 rats
Protocol: as §1, §2, §3, §4, §5, §6, §7, §8, §9, §10, §11, §12, §13, §14, §15, §16
8. […]
as §17

[3] = tested on: Incised Wound Rattus Norvegicus; experiment: Acute toxicity study on incised wound healing in rats; format: in vivo; parameters: Neo vascularization: key to the marks not given beside the values
Protocol: Research Protocol: Acute Toxicity Study on the Incised Wound healing Rattus Norvegicus In Vivo research on animals
as §9
1. Inject the animals with anesthesia drug containing ketamine hydrochloride, 0.1-0.2 ml as illustrated in 101 of FIG. 1.
2. Place them back into the cage while waiting them fully unconscious as the effect of the drug.
as §12
4. Give antiseptics, i.e. povidone iodine and alcohol. Wait for three minutes as illustrated in 102 of FIG. 1.
5. Make a 2-cm long incision on the animal's back as illustrated in 103 of FIG. 1. Should any bleeding occurred, wipe with cotton.
6. Apply cotton bud ton the incision spot.
7. Cover the spot with gauze bandage and stick it with plaster as illustrated in 104 of FIG. 1.
8. Place the animal back in to the cage.
2. Fixation Tissue Protocol
The skin organs from treatment and control group are taken after the incision, then put them to the bottles containing fixation solution, and give labels. The intensions of the fixation are:
3. Tissue Processing Protocol/Paraffin Block
The tissue's processing is started after the fixation completed. The steps of this process are dehydration, clearing, and impregnation/embedding. […] Afterward, do the clearing by place the tissue into xylol. Then, do the impregnation/embedding by using paraffin. The detail of this process is as follows: After the fixation is completed, the tissues are placed into the following solution, consecutively. 1. Alcohol 70%: - 2. Alcohol 80% 1 hour 3. Alcohol 95%: 2 hour 4. Alcohol 95%: 1 hour 5. Alcohol 100%: 1 hour 6. Alcohol 100%: 1 hour 7. Alcohol 100%: 1 hour 8. Xylol: 1 hour 9. Xylol: 1 hour 10. Xylol: 2 hour 11. Paraffin (56-58° C.): 2 hour 12. Paraffin (56-58° C.) 2 hour 13. Paraffin (56-58° C.) 2 hour
4. Tissue Slicing and Attaching Process on object glass Protocol.
5. Hematoxilin Eosin Dyeing Protocol
The steps of HE dyeing method are:
This research use 24 Rats divided into 4 groups of treatment; they are Vaseline, Sibro, Gentamicin and Test. Composition. Each group has 6 rats.
2. […] After then stopped the bleeding, applied Vaseline, Sibro, Gentamicin and Test Composition to each group. Application of Vaseline (201), Sibro (202), Gentamicin (203) and Test Composition (204) are illustrated in FIG. 2.
There are 4 parameters in observing incised wound microscopically, they are Epithelization, Fibroplasia, Neovascularization, and scar.

[4] = incised wound, microscopic (HE), after 7 days

Row | Compound | Dead Rats [1] | Survival [1] | Dead Rats [2] | Survival [2] | Wound condition on day −7 (macroscopic) ([3]; incised wound, macroscopic condition) | Epitheliazation [3, 4] | Fibroplasia [3, 4] | Neo vascularization [3, 4] | Scar [3, 4] | Dead Rats ([3]; substance applied on 2-cm incised wound, 6 rats per group, up to day 7) | Survival on day −7 ([3]; substance applied on 2-cm incised wound, survivors/6 rats)
1 | C/C(=C\C(=O)OCCCCCCCCC(=O)O)C[C@@H]1OC[C@H](C[C@@H]2O[C@H]2[C@@H](C)[C@H](C)O)[C@@H](O)[C@H]1O [mupirocine, Mupirocin] | 0 | 6 | 0 | 6 |  |  |  |  |  |  | 
2 | Gentamicin [Gentamisin] |  |  |  |  | Closing (with 1 granulation) | + | + | ++ | + | 0 | 6/6

From patent US10993895B2, “Composition obtainable by passing singlet oxygen through extra virgin olive oil” (priority 2017, dated 2021)
